According to PMC6496074, “The Evolution of Azole Resistance in Candida albicans Sterol 14α-Demethylase (CYP51) through Incremental Amino Acid Substitutions” (Antimicrobial Agents and Chemotherapy, 2019):
Values joined by “and” are separate entries in the source; they are usually repeats but may differ in a detail not shown here. Equal entries are not always repeated.

What was measured:
Experiment in all cases: CYP51 reconstitution assay
Type in all cases: biochemical
CaCYP51 Y132F+F145L = molecular target: T1, CaCYP51 Y132F+F145L (Candida albicans, UniProt P10613, F145L/Y132F)
T1 construct: made in house; host or cells: E. coli DH5α (pCWori+)
Description: (§1) Azole antifungal agents were added in 2.5 μl dimethyl sulfoxide, followed by 10 min of incubation at 37°C prior to assay initiation with 4 mM β-NADPH-Na4. The samples were then shaken for 15 min at 37°C. Sterol metabolites were recovered by extraction with ethyl acetate, followed by derivatization with 0.1 ml N,O-bis(trimethylsilyl)trifluoroacetamide (BSTFA)–trimethylchlorosilane (TMCS) (99:1) and 0.3 ml anhydrous pyridine (2 h at 80°C), prior to analysis by gas chromatography-mass spectrometry (GC-MS) ([52]). IC50 determinations were performed in duplicate.

CaCYP51 Y132F+K143R = molecular target: T2, CaCYP51 Y132F+K143R (Candida albicans, UniProt P10613, K143R/Y132F)
T2 construct: made in house; host or cells: E. coli DH5α (pCWori+)
T2 sequence (P10613 whole entry, looked up, stated change not applied): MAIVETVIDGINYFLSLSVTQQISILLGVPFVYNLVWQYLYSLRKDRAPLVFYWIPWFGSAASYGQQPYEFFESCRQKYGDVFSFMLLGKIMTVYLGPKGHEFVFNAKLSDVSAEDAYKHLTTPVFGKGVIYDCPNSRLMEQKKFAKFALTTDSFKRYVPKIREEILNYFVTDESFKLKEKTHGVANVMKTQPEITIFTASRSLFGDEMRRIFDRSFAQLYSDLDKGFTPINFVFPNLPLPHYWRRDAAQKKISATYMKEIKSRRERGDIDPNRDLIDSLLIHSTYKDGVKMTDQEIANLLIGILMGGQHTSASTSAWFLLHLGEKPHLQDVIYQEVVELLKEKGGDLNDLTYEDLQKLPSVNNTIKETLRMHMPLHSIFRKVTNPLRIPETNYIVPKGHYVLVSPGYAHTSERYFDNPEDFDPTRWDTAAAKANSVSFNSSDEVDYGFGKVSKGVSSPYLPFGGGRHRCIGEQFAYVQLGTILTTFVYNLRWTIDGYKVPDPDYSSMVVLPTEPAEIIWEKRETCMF
Description: as §1

CaCYP51 D278N = molecular target: T3, CaCYP51 D278N (Candida albicans, UniProt P10613, D278N)
T3 construct: made in house; host or cells: E. coli DH5α (pCWori+)
Description: as §1

CaCYP51 D278N+G464S = molecular target: T4, CaCYP51 D278N+G464S (Candida albicans, UniProt P10613, D278N/G464S)
T4 construct: made in house; host or cells: E. coli DH5α (pCWori+)
Description: as §1

CaCYP51 F126V = molecular target: T5, CaCYP51 F126V (Candida albicans, UniProt P10613, F126V)
T5 construct: made in house; host or cells: E. coli DH5α (pCWori+)
Description: as §1

CaCYP51 F145L = molecular target: T6, CaCYP51 F145L (Candida albicans, UniProt P10613, F145L)
T6 construct: made in house; host or cells: E. coli DH5α (pCWori+)
T6 sequence (P10613 whole entry, looked up, stated change not applied): as above
Description: as §1

CaCYP51 F449Y = molecular target: T7, CaCYP51 F449Y (Candida albicans, UniProt P10613, F449Y)
T7 construct: made in house; host or cells: E. coli DH5α (pCWori+)
Description: as §1

CaCYP51 G307S = molecular target: T8, CaCYP51 G307S (Candida albicans, UniProt P10613, G307S)
T8 construct: made in house; host or cells: E. coli DH5α (pCWori+)
Description: as §1

CaCYP51 G307S+G450E = molecular target: T9, CaCYP51 G307S+G450E (Candida albicans, UniProt P10613, G307S/G450E)
T9 construct: made in house; host or cells: E. coli DH5α (pCWori+)
Description: as §1

CaCYP51 G448E = molecular target: T10, CaCYP51 G448E (Candida albicans, UniProt P10613, G448E)
T10 construct: made in house; host or cells: E. coli DH5α (pCWori+)
T10 sequence (P10613 whole entry, looked up, stated change not applied): as above
Description: as §1

CaCYP51 G450E = molecular target: T11, CaCYP51 G450E (Candida albicans, UniProt P10613, G450E)
T11 construct: made in house; host or cells: E. coli DH5α (pCWori+)
Description: as §1

CaCYP51 G464S = molecular target: T12, CaCYP51 G464S (Candida albicans, UniProt P10613, G464S)
T12 construct: made in house; host or cells: E. coli DH5α (pCWori+)
Description: as §1

CaCYP51 I471T = molecular target: T13, CaCYP51 I471T (Candida albicans, UniProt P10613, I471T)
T13 construct: made in house; host or cells: E. coli DH5α (pCWori+)
Description: as §1

CaCYP51 K143R = molecular target: T14, CaCYP51 K143R (Candida albicans, UniProt P10613, K143R); settings: mean ± SD, duplicate
T14 construct: made in house; host or cells: E. coli DH5α (pCWori+)
Description: as §1

CaCYP51 P230L = molecular target: T15, CaCYP51 P230L (Candida albicans, UniProt P10613, P230L)
T15 construct: made in house; host or cells: E. coli DH5α (pCWori+)
T15 sequence (P10613 whole entry, looked up, stated change not applied): as above
Description: as §1

CaCYP51 Q474K = molecular target: T16, CaCYP51 Q474K (Candida albicans, UniProt P10613, Q474K)
T16 construct: made in house; host or cells: E. coli DH5α (pCWori+)
T16 sequence (P10613 whole entry, looked up, stated change not applied): as above
Description: as §1

CaCYP51 R467K = molecular target: T17, CaCYP51 R467K (Candida albicans, UniProt P10613, R467K)
T17 construct: made in house; host or cells: E. coli DH5α (pCWori+)
Description: as §1

CaCYP51 S279F = molecular target: T18, CaCYP51 S279F (Candida albicans, UniProt P10613, S279F)
T18 construct: made in house; host or cells: E. coli DH5α (pCWori+)
T18 sequence (P10613 whole entry, looked up, stated change not applied): as above
Description: as §1

CaCYP51 S405F = molecular target: T19, CaCYP51 S405F (Candida albicans, UniProt P10613, S405F)
T19 construct: made in house; host or cells: E. coli DH5α (pCWori+)
T19 sequence (P10613 whole entry, looked up, stated change not applied): as above
Description: as §1

CaCYP51 V437I = molecular target: T20, CaCYP51 V437I (Candida albicans, UniProt P10613, V437I)
T20 construct: made in house; host or cells: E. coli DH5α (pCWori+)
Description: as §1

CaCYP51 V456I = molecular target: T21, CaCYP51 V456I (Candida albicans, UniProt P10613, V456I)
T21 construct: made in house; host or cells: E. coli DH5α (pCWori+)
Description: as §1

CaCYP51 V488I = molecular target: T22, CaCYP51 V488I (Candida albicans, UniProt P10613, V488I); settings: mean ± SD, duplicate
T22 construct: made in house; host or cells: E. coli DH5α (pCWori+)
Description: as §1

CaCYP51 Wild type = molecular target: T23, CaCYP51 Wild type (Candida albicans, UniProt P10613); settings: Wild type
T23 construct: made in house; host or cells: E. coli DH5α (pCWori+)
T23 sequence (P10613 whole entry, looked up, natural form): as the sequence (P10613 whole entry, looked up, stated change not applied) above
Description: as §1

CaCYP51 Y132F = molecular target: T24, CaCYP51 Y132F (Candida albicans, UniProt P10613, Y132F)
T24 construct: made in house; host or cells: E. coli DH5α (pCWori+)
Description: as §1

CaCYP51 Y132H = molecular target: T25, CaCYP51 Y132H (Candida albicans, UniProt P10613, Y132H); settings: mean ± SD, duplicate
T25 construct: made in house; host or cells: E. coli DH5α (pCWori+)
Description: as §1

CaCYP51 Y132H+K143R = molecular target: T26, CaCYP51 Y132H+K143R (Candida albicans, UniProt P10613, K143R/Y132H)
T26 construct: made in house; host or cells: E. coli DH5α (pCWori+)
Description: as §1

CaCYP51 Y257H = molecular target: T27, CaCYP51 Y257H (Candida albicans, UniProt P10613, Y257H)
T27 construct: made in house; host or cells: E. coli DH5α (pCWori+)
Description: as §1

CaCYP51 Y447H = molecular target: T28, CaCYP51 Y447H (Candida albicans, UniProt P10613, Y447H)
T28 construct: made in house; host or cells: E. coli DH5α (pCWori+)
T28 sequence (P10613 whole entry, looked up, stated change not applied): as above
Description: as §1

[1] = 0.25 h, read-out: Residual CYP51 activity (%) ± SD
[2] = 0.25 h, 4 μM triazole, % of activity without triazole, read-out: Residual CYP51 activity (%) ± SD

Compound `CCC(C)n1ncn(-c2ccc(N3CCN(c4ccc(OCC5COC(Cn6cncn6)(c6ccc(Cl)cc6Cl)O5)cc4)CC3)cc2)c1=O` (centres unmarked) [Itraconazole, itraconazole] has an IC50 (CaCYP51 Y132F+F145L) of 364 ± 23 nM, a remaining activity at 4 µM (CaCYP51 Y132F+F145L; [1]) of 0.91 ± 0.05% and an IC50 (CaCYP51 Y132F+K143R) of 190 ± 2 nM. The remaining activity at 4 µM (CaCYP51 Y132F+K143R; [1]) was 0.23 ± 0.13%, the remaining activity at 4 µM (CaCYP51 D278N; [2]) was 3 ± 0.19% and the IC50 (CaCYP51 D278N; mean ± SD, duplicate) was 545 ± 44 nM. The remaining activity at 4 µM (CaCYP51 D278N+G464S; [2]) was 3.19 ± 0.46%, the IC50 (CaCYP51 D278N+G464S; mean ± SD, duplicate) was 403 ± 11 nM and the remaining activity at 4 µM (CaCYP51 F126V; [2]) was 0.22 ± 0.05%. It also gave an IC50 (CaCYP51 F126V; mean ± SD, duplicate) of 206 ± 9 nM, a remaining activity at 4 µM (CaCYP51 F145L; [2]) of 1.99 ± 0.04% and an IC50 (CaCYP51 F145L; mean ± SD, duplicate) of 300 ± 13 nM. It also gave a remaining activity at 4 µM (CaCYP51 F449Y; [2]) of 0.84 ± 0.57%, an IC50 (CaCYP51 F449Y; mean ± SD, duplicate) of 222 ± 11 nM and a remaining activity at 4 µM (CaCYP51 G307S; [2]) of 0.53 ± 0.21%. The IC50 (CaCYP51 G307S; mean ± SD, duplicate) was 225 ± 7 nM, the remaining activity at 4 µM (CaCYP51 G307S+G450E; [2]) was 0.2 ± 0.04% and the IC50 (CaCYP51 G307S+G450E; mean ± SD, duplicate) was 318 ± 17 nM. For the same compound, the remaining activity at 4 µM (CaCYP51 G448E; [2]) was 1.75 ± 0.26%, the IC50 (CaCYP51 G448E; mean ± SD, duplicate) was 238 ± 13 nM and the remaining activity at 4 µM (CaCYP51 G450E; [2]) was 7.66 ± 0.54%. For the same compound, the IC50 (CaCYP51 G450E; mean ± SD, duplicate) was 458 ± 70 nM, the remaining activity at 4 µM (CaCYP51 G464S; [2]) was 0.54 ± 0.11% and the IC50 (CaCYP51 G464S; mean ± SD, duplicate) was 282 ± 6 nM. For the same compound, the remaining activity at 4 µM (CaCYP51 I471T; [2]) was 1.21 ± 0.01%, the IC50 (CaCYP51 I471T; mean ± SD, duplicate) was 218 ± 2 nM and the IC50 (CaCYP51 K143R) was 450 ± 16 nM. It also gave a remaining activity at 4 µM (CaCYP51 P230L; [2]) of 0.06 ± 0.01%, an IC50 (CaCYP51 P230L; mean ± SD, duplicate) of 265 ± 38 nM and a remaining activity at 4 µM (CaCYP51 Q474K; [2]) of 0.49 ± 0.04%. It also gave an IC50 (CaCYP51 Q474K; mean ± SD, duplicate) of 246 ± 6 nM, a remaining activity at 4 µM (CaCYP51 R467K; [2]) of 0.45 ± 0.17% and an IC50 (CaCYP51 R467K; mean ± SD, duplicate) of 235 ± 18 nM. It also gave a remaining activity at 4 µM (CaCYP51 S279F; [2]) of 5.97 ± 0.35%, an IC50 (CaCYP51 S279F; mean ± SD, duplicate) of 569 ± 121 nM and a remaining activity at 4 µM (CaCYP51 S405F; [2]) of 2.73 ± 0.13%. It also gave an IC50 (CaCYP51 S405F; mean ± SD, duplicate) of 350 ± 19 nM, a remaining activity at 4 µM (CaCYP51 V437I; [2]) of 0.13 ± 0.02% and an IC50 (CaCYP51 V437I; mean ± SD, duplicate) of 293 ± 22 nM. It also gave a remaining activity at 4 µM (CaCYP51 V456I; [2]) of 3.21 ± 0.07%, an IC50 (CaCYP51 V456I; mean ± SD, duplicate) of 603 ± 2 nM and an IC50 (CaCYP51 V488I) of 449 ± 16 nM. For the same compound, the remaining activity at 4 µM (CaCYP51 Wild type; [2]) was 0.03 ± 0.02%, the IC50 (CaCYP51 Wild type; mean ± SD, duplicate, read-out: IC50) was 390 nM and 389 nM and the remaining activity at 4 µM (CaCYP51 Y132F; [2]) was 0.19 ± 0.04%. For the same compound, the IC50 (CaCYP51 Y132F; mean ± SD, duplicate) was 309 ± 3 nM, the IC50 (CaCYP51 Y132H) was 150 ± 28 nM and the remaining activity at 4 µM (CaCYP51 Y132H+K143R; [2]) was 0.7 ± 0.03%. The IC50 (CaCYP51 Y132H+K143R; mean ± SD, duplicate) was 237 ± 7 nM, the remaining activity at 4 µM (CaCYP51 Y257H; [2]) was 1.37 ± 0.28% and the IC50 (CaCYP51 Y257H; mean ± SD, duplicate) was 336 ± 14 nM. For the same compound, the remaining activity at 4 µM (CaCYP51 Y447H; [2]) was 1.45 ± 0.06% and the IC50 (CaCYP51 Y447H; mean ± SD, duplicate) was 299 ± 39 nM.
